From PubChem BioAssay AID330 (DTP/NCI, 2004)
Where “and” joins values, the source holds several entries; their conditions need not be identical. Equal entries are not always repeated. Inconclusive results and toxic doses are left out. How the source made its calls: active means survival T/C of 150% or more; inactive means T/C below 125% in these data.

System: P388 leukemia ip, CD2F1 mice, survival T/C
Assay: NCI In Vivo Anticancer Drug Screen. Data for tumor model P388 Leukemia (intraperitoneal) in CD2F1 (CDF1) mice
Details: endpoint: median survival time, higher = longer survival
Procedure, shortened: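 Mice carrying the transplanted tumor received test compound or vehicle. Survival was recorded in each group, and the value is the treated-group measurement divided by that of the vehicle-treated control group.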

Measured: T/C

COc1cc([C@@H]2c3cc4c(cc3[C@@H](OC3OC5COC(C)OC5C(O)C3O)[C@H]3COC(=O)[C@H]23)OCO4)cc(OC)c1O (stereo partly specified)
active: dose: 1.0 mg/kg/injection, schedule: Q01DX009 (ip), vehicle: saline 181 % of control | dose: 2.0 mg/kg/injection, schedule: Q01DX009 (ip), vehicle: saline 183 % of control and 217 % of control | dose: 4.0 mg/kg/injection, schedule: Q01DX001 (ip), vehicle: saline with Tween-80 153 % of control | dose: 4.0 mg/kg/injection, schedule: Q01DX009 (ip), vehicle: saline 241 % of control and 300 % of control | dose: 6.24 mg/kg/injection, schedule: Q04DX003 (ip), vehicle: water 177 % of control | dose: 6.48 mg/kg/injection, schedule: Q04DX003 (ip), vehicle: water 178 % of control and 219 % of control | dose: 7.78 mg/kg/injection, schedule: Q04DX003 (ip), vehicle: water 212 % of control | dose: 8.0 mg/kg/injection, schedule: Q01DX001 (ip), vehicle: saline with Tween-80 164 % of control | dose: 8.0 mg/kg/injection, schedule: Q01DX001 (ip), vehicle: saline 180 % of control | dose: 8.0 mg/kg/injection, schedule: Q01DX001 (ip), vehicle: water 162 % of control and 168 % of control | dose: 8.0 mg/kg/injection, schedule: Q08DX002 (ip), vehicle: saline 207 % of control | dose: 10.0 mg/kg/injection, schedule: Q04DX002 (ip), vehicle: suspension in saline 162 % of control | dose: 10.0 mg/kg/injection, schedule: Q04DX003 (ip), vehicle: saline with Tween-80 174 % of control and 190 % of control | dose: 10.4 mg/kg/injection, schedule: Q04DX003 (ip), vehicle: clinical formulation 247 % of control | dose: 10.4 mg/kg/injection, schedule: Q04DX003 (ip), vehicle: water 213 % of control | dose: 10.8 mg/kg/injection, schedule: Q04DX002 (ip), vehicle: water 243 % of control | dose: 10.8 mg/kg/injection, schedule: Q04DX003 (ip), vehicle: water 211 % of control and 281 % of control | dose: 12.0 mg/kg/injection, schedule: Q04DX003 (ip), vehicle: saline 211 % of control | dose: 13.0 mg/kg/injection, schedule: Q04DX002 (ip), vehicle: Klucel (hydroxypropylcellulose) (HPC) 240 % of control | dose: 13.0 mg/kg/injection, schedule: Q04DX003 (ip), vehicle: water 234 % of control | dose: 16.0 mg/kg/injection, schedule: Q08DX002 (ip), vehicle: saline 240 % of control | dose: 17.3 mg/kg/injection, schedule: Q04DX003 (ip), vehicle: clinical formulation 276 % of control | dose: 17.3 mg/kg/injection, schedule: Q04DX003 (ip), vehicle: water 272 % of control | dose: 18.0 mg/kg/injection, schedule: Q04DX002 (ip), vehicle: water 264 % of control | dose: 18.0 mg/kg/injection, schedule: Q04DX003 (ip), vehicle: Klucel (hydroxypropylcellulose) (HPC) 320 % of control and 576 % of control | dose: 20.0 mg/kg/injection, schedule: Q04DX002 (ip), vehicle: suspension in saline 167 % of control | dose: 20.0 mg/kg/injection, schedule: Q04DX003 (ip), vehicle: saline with Tween-80 183 % of control and 190 % of control | dose: 21.6 mg/kg/injection, schedule: Q04DX002 (ip), vehicle: Klucel (hydroxypropylcellulose) (HPC) 280 % of control | dose: 21.6 mg/kg/injection, schedule: Q04DX002 (ip), vehicle: water 235 % of control | dose: 21.6 mg/kg/injection, schedule: Q04DX003 (ip), vehicle: water 398 % of control | dose: 27.0 mg/kg/injection, schedule: Q04DX003 (ip), vehicle: Klucel (hydroxypropylcellulose) (HPC) 436 % of control and 567 % of control | dose: 28.8 mg/kg/injection, schedule: Q04DX003 (ip), vehicle: clinical formulation 419 % of control | dose: 28.8 mg/kg/injection, schedule: Q04DX003 (ip), vehicle: water 304 % of control | dose: 30.0 mg/kg/injection, schedule: Q04DX002 (ip), vehicle: water 441 % of control | dose: 30.0 mg/kg/injection, schedule: Q04DX003 (ip), vehicle: water 333 % of control and 358 % of control | dose: 32.0 mg/kg/injection, schedule: Q08DX002 (ip), vehicle: saline 285 % of control | dose: 36.0 mg/kg/injection, schedule: Q04DX002 (ip), vehicle: Klucel (hydroxypropylcellulose) (HPC) 290 % of control | dose: 36.0 mg/kg/injection, schedule: Q04DX002 (ip), vehicle: water 445 % of control | dose: 36.0 mg/kg/injection, schedule: Q04DX003 (ip), vehicle: water 416 % of control | dose: 40.0 mg/kg/injection, schedule: Q04DX002 (ip), vehicle: suspension in saline 218 % of control | dose: 40.0 mg/kg/injection, schedule: Q04DX003 (ip), vehicle: Klucel (hydroxypropylcellulose) (HPC) 436 % of control and 576 % of control | dose: 40.0 mg/kg/injection, schedule: Q04DX003 (ip), vehicle: saline with Tween-80 223 % of control and 257 % of control | dose: 50.0 mg/kg/injection, schedule: Q04DX002 (ip), vehicle: water 372 % of control | dose: 60.0 mg/kg/injection, schedule: Q04DX002 (ip), vehicle: water 354 % of control | dose: 60.0 mg/kg/injection, schedule: Q04DX003 (ip), vehicle: Klucel (hydroxypropylcellulose) (HPC) 576 % of control | dose: 60.0 mg/kg/injection, schedule: Q04DX003 (ip), vehicle: water 416 % of control | dose: 64.0 mg/kg/injection, schedule: Q08DX002 (ip), vehicle: saline 247 % of control | dose: 83.3 mg/kg/injection, schedule: Q04DX002 (ip), vehicle: water 441 % of control | dose: 96.0 mg/kg/injection, schedule: Q01DX001 (ip), vehicle: water 238 % of control and 329 % of control | dose: 100.0 mg/kg/injection, schedule: Q04DX002 (ip), vehicle: water 445 % of control
inactive: dose: 5.0 mg/kg/injection, schedule: Q04DX003 (ip), vehicle: saline with Tween-80 122 % of control | dose: 64.0 mg/kg/injection, schedule: Q01DX005 (ip), vehicle: saline 105 % of control and 86 % of control and 88 % of control | dose: 100.0 mg/kg/injection, schedule: Q04DX002 (ip), vehicle: Klucel (hydroxypropylcellulose) (HPC) 89 % of control | dose: 128.0 mg/kg/injection, schedule: Q01DX001 (ip), vehicle: saline with Tween-80 77 % of control and 89 % of control | dose: 128.0 mg/kg/injection, schedule: Q08DX002 (ip), vehicle: saline 98 % of control

CC(C)N(C(=S)/N=C1/SCS(=O)(=O)N1C)C(C)C
inactive: dose: 50.0 mg/kg/injection, schedule: Q04DX003 (ip), vehicle: saline with Tween-80 101 % of control | dose: 100.0 mg/kg/injection, schedule: Q04DX003 (ip), vehicle: saline with Tween-80 104 % of control | dose: 200.0 mg/kg/injection, schedule: Q04DX003 (ip), vehicle: saline with Tween-80 104 % of control

COC(=O)C1(C)CCCC2(C)c3cc(OC)ccc3C(=O)C(Br)C12 (stereo unspecified)
inactive: dose: 50.0 mg/kg/injection, schedule: Q01DX009 (ip), vehicle: saline with Tween-80 103 % of control | dose: 100.0 mg/kg/injection, schedule: Q01DX009 (ip), vehicle: saline with Tween-80 100 % of control | dose: 200.0 mg/kg/injection, schedule: Q01DX009 (ip), vehicle: saline with Tween-80 112 % of control

CC1CCC2C(C)C3C(CC4C5CC=C6CC(OC7OC(CO)C(O)C(OC8OC(CO)C(O)C(O)C8O)C7OC7OC(C)C(O)C(O)C7O)CCC6(C)C5CCC43C)N2C1 (stereo unspecified)
inactive: dose: 6.25 mg/kg/injection, schedule: Q01DX005 (ip), vehicle: Klucel (hydroxypropylcellulose) (HPC) 91 % of control | dose: 12.5 mg/kg/injection, schedule: Q01DX005 (ip), vehicle: Klucel (hydroxypropylcellulose) (HPC) 95 % of control | dose: 25.0 mg/kg/injection, schedule: Q01DX005 (ip), vehicle: Klucel (hydroxypropylcellulose) (HPC) 89 % of control | dose: 25.0 mg/kg/injection, schedule: Q04DX003 (ip), vehicle: suspension in saline 98 % of control | dose: 50.0 mg/kg/injection, schedule: Q04DX003 (ip), vehicle: suspension in saline 96 % of control | dose: 100.0 mg/kg/injection, schedule: Q04DX003 (ip), vehicle: suspension in saline 105 % of control

COC(=O)C1(C)C(OC(C)=O)CC2C3C(CC4CC(OC(C)=O)CCC42C)OC(=O)CC31 (stereo unspecified)
inactive: dose: 0.25 mg/kg/injection, schedule: Q01DX009 (ip), vehicle: distilled water + Tween-80 99 % of control | dose: 0.5 mg/kg/injection, schedule: Q01DX009 (ip), vehicle: distilled water + Tween-80 101 % of control | dose: 1.0 mg/kg/injection, schedule: Q01DX009 (ip), vehicle: distilled water + Tween-80 102 % of control | dose: 2.0 mg/kg/injection, schedule: Q01DX009 (ip), vehicle: distilled water + Tween-80 104 % of control | dose: 4.0 mg/kg/injection, schedule: Q01DX009 (ip), vehicle: distilled water + Tween-80 100 % of control and 104 % of control | dose: 8.0 mg/kg/injection, schedule: Q01DX009 (ip), vehicle: distilled water + Tween-80 106 % of control and 111 % of control | dose: 16.0 mg/kg/injection, schedule: Q01DX009 (ip), vehicle: distilled water + Tween-80 94 % of control | dose: 32.0 mg/kg/injection, schedule: Q01DX009 (ip), vehicle: distilled water + Tween-80 87 % of control | dose: 64.0 mg/kg/injection, schedule: Q01DX009 (ip), vehicle: distilled water + Tween-80 100 % of control
